Four compounds from US20100056524A1, “Compound” (priority 2008, published 2010) can be followed below.

In one assay the target is T1, JNK2 (Homo sapiens, UniProt P45984).
T1 construct: All protein kinases were of human origin and encoded full length proteins, unless indicated otherwise; made in house
Description: JNK2 protein kinase assay. Type of assay: biochemical. Conditions: for remaining activity at 10 µM: 10 μM compound; for residual kinase activity JNK2: 1 μm compound; for remaining activity at 1 µM: 1 μM compound. The source says:
(§1) All protein kinases were of human origin and encoded full length proteins, unless indicated otherwise. They were either expressed as glutathione S-transferase (GST) fusion proteins in Escherichia Coli or as hexahistidine (His6)-tagged proteins in insect Sf21 cells. GST fusion proteins were purified by affinity chromatography on glutathione-Sepharose, and His6-tagged proteins on nickel/nitriloacetate-agarose. The procedures for expressing some of the protein kinases used herein have been detailed previously.^8,9 The following sections outline the DNA vectors synthesised and the procedures used to express and purifying protein kinases that have not been reported previously.
In order to produce activated forms of Aurora B and Aurora C, insect Sf21 cells were incubated for 1 h with the protein phosphatase inhibitor okadaic acid (50 nM). JNK isoforms were activated with MKK4 and MKK7, MNK2 with p38α MAPkinase; PKBα, PKBβ, with PDK1, and ERK1 with MKK1. To activate CDK2, bacterial pellets expressing cyclin A2 and CDK2 were mixed together, lyse and purified on glutathione Sepharose. The GST-tags were removed by cleavage with PreScission protease and the CDK2-cyclin A2 complex purified by chromatography on SP-Sepharose. It was then activated with CAK1/CDK7 followed by chromatography on nickel-nitrilotriacetate agarose to remove CAK1/CDK7, which binds to this column by virtue of its C-terminal His6 tag. All the other protein kinases were active as expressed.
(§2) All assays (25.5 μl) were carried out at room temperature (21° C.) and were linear with respect to time and enzyme concentration under the conditions used. Assays were performed for 30 min using Multidrop Micro reagent dispensers (Thermo Electron Corporation, Waltham, Mass. 02454, USA) in a 96-well format. The concentration of magnesium acetate in the assays was 10 mM and the [γ-33P] ATP (800 cpm/pmol) was used at 5, 20 or 50 μM as indicated, in order to be at or below the Km for ATP for each enzyme. Protein kinases assayed at 5 μM ATP were: —ERK1, ERK8, PKBα, MARK3, Aurora C. Protein kinases assayed at 20 μM ATP were: —JNK1, PDK1, CHK1, CHK2, CDK2 and Aurora B. Protein kinases assayed at 50 μM ATP were: —MNK2, IKKepsilon and TBK1.
(§3) The assays were initiated with MgATP, stopped by addition of 5 μl of 0.5 M orthophosphoric acid and spotted on to P81 filterplates using a unifilter harvester (PerkinElmer, Boston, Mass. 02118, USA). The IC50 values of inhibitors were determined after carrying out assays at 10 different concentrations of each compound.
(§4) Unless stated otherwise, enzymes were diluted in 50 mM Tris/HCl pH 7.5, 0.1 mM EGTA, 1 mg/ml BSA, 0.1% (v/v) 2-mercaptoethanol and assayed in 50 mM Tris/HCl pH 7.5, 0.1 mM EGTA, 0.1% (v/v) 2-mercaptoethanol.

The next assay has as its system IR-HIS. Description: IR-HIS protein kinase assay. In kind it is biochemical, human. Conditions: for residual kinase activity: IR-HIS.
Source text: as §1, §2, §3, §4

A further assay has as its target T2, IKKe (Homo sapiens, UniProt Q14164).
T2 construct: All protein kinases were of human origin and encoded full length proteins, unless indicated otherwise; His6; made in house; host or cells: insect Sf21 cells
T2 sequence (Q14164 1-716): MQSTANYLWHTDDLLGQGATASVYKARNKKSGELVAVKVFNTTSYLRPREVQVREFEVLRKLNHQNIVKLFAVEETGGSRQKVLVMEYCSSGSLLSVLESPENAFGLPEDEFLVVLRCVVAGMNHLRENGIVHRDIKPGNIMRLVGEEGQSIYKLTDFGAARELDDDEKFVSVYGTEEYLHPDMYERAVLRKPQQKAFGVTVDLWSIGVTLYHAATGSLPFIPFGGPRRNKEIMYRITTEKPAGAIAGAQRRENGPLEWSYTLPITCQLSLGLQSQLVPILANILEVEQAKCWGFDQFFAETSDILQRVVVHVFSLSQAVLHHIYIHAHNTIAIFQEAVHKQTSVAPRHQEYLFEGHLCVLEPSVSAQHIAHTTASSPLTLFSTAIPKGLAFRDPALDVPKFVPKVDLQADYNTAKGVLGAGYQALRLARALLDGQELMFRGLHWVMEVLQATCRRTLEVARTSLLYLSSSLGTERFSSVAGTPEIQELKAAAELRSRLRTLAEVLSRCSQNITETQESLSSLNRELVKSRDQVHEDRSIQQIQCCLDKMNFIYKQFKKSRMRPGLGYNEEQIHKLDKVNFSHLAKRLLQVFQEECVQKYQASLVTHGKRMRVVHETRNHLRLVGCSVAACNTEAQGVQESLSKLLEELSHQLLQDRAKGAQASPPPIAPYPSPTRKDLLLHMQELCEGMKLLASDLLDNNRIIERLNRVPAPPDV
Put plainly: IKKe protein kinase assay. In kind it is biochemical. Conditions: for remaining activity at 10 µM: 10 μM compound; for residual kinase activity IKKe: 1 μm compound; for remaining activity at 1 µM: 1 μM compound.
Source text: as §1
The following kinases were expressed in Sf21 cells: Aurora B and Aurora C, extra-cellular signal-regulated kinase 8 (ERK8), microtubule affinity regulating kinase 3 (MARK3), protein kinase Bα[118-480][S473D], protein kinase Bβ (PKBβ[120-481][S474D], 3-phosphoinositide-dependent protein kinase-1 [52-556]
as §2, §3, §4

The mark [1] stands for this setting: read-out: residual kinase activity JNK2.
Where [2] appears, read: read-out: residual kinase activity IKKe.
The mark [3] stands for this setting: JNK2, read-out: residual kinase activity.
The mark [4] stands for this setting: IKKe, 50 μM ATP, read-out: residual kinase activity.

Each structure is given as a SMILES string. Counter-ions that a name gives are not always drawn. Like-named read-outs stand apart in the source and are kept apart here.

T1 sequence (P45984 whole entry): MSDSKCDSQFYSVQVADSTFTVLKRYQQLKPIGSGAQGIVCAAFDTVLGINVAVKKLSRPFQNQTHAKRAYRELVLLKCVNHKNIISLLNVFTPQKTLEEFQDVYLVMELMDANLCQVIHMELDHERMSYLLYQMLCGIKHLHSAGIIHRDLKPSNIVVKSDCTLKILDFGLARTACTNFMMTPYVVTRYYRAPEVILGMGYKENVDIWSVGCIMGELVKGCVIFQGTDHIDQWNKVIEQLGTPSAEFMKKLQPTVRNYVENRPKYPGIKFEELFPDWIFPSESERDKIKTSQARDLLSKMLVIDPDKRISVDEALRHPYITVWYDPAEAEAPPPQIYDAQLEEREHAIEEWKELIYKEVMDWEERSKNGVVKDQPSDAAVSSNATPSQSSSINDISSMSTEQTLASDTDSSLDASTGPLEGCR

Consider `O=C(NCCCNc1nc(Nc2cccc(F)c2)ncc1Br)C1CCC1` [Compound A, cyclobutanecarboxylic acid {3-[5-bromo-2-(3-fluoro-phenylamino)-pyrimidin-4-ylamino]-propyl}-amide, reference compound], for which the remaining activity at 10 µM at JNK2 (setting [1]) stood at 5%; at IKKe (setting [2]) it was 3%. Besides, the “residual kinase activity JNK2” value at JNK2 worked out at 40%. Further, the results for the “residual kinase activity IR-HIS” value in the assay with IR-HIS (10 μM compound) and in the assay with IR-HIS (1 μm compound) were 69% and 91%, respectively. On IKKe, the “residual kinase activity IKKe” value was 13%.
For the compound `O=C(NCCCNc1nc(Nc2cccc(N3CCCC3=O)c2)ncc1C1CC1)c1cccs1` [Example 47, Thiophene-2-carboxylic acid (3-{5-cyclopropyl-2-[3-(2-oxo-pyrrolidin-1-yl)-phenylamino]-pyrimidin-4-ylamino}-propyl)-amide. Hydrochloride salt], the remaining activity at 1 µM turned out to be 98% at JNK2 (setting [3]) and 14% at IKKe (setting [4]). Besides, the remaining activity at 10 µM at JNK2 (setting [3]) was determined as 89%; at IKKe (setting [4]) it was 6%. For the same compound, the results for the residual kinase activity in the assay with IR-HIS (1 μM compound) and in the assay on IR-HIS (10 μM compound) were 105% and 85%, respectively.
`O=C(NCCCNc1nc(Nc2cccnc2)ncc1C1CC1)c1cccs1` [Example 50, Thiophene-2-carboxylic acid {3-[5-cyclopropyl-2-(pyridin-3-ylamino)-pyrimidin-4-ylamino]-propyl}-amide]: the remaining activity at 1 µM came to 102% at JNK2 (setting [3]) and 28% at IKKe (setting [4]). Moreover, the remaining activity at 10 µM is 66% on JNK2 (setting [3]) and 7% on IKKe (setting [4]). For the same compound, the residual kinase activity in the assay on IR-HIS (1 μM compound) and in the assay on IR-HIS (10 μM compound) was 109% in each case.
Consider `O=C(NCCCNc1nc(Nc2cccc(F)c2)ncc1C1CC1)C1CCC1` [Example 23, Cyclobutanecarboxylic acid {3-[5-cyclopropyl-2-(3-fluoro-phenylamino)-pyrimidin-4-ylamino]-propyl}-amide], for which the remaining activity at 10 µM at JNK2 (setting [1]) worked out at 55%; at JNK2 (setting [3]) it was 55%; on IKKe (setting [2]), 5%; at IKKe (setting [4]), 5%. Besides, the “residual kinase activity JNK2” value on JNK2 worked out at 78%. The remaining activity at 1 µM turned out to be 78% on JNK2 (setting [3]) and 15% at IKKe (setting [4]). Besides, the “residual kinase activity IR-HIS” value is listed as 86% in the assay with IR-HIS (10 μM compound) and 105% in the assay on IR-HIS (1 μm compound). The residual kinase activity in the assay with IR-HIS (1 μM compound) was 105%; with IR-HIS (10 μM compound) it was 86%. For the same compound, the “residual kinase activity IKKe” value on IKKe was 15%.
